# Reference: US9738634B2, “Heterocyclic amide compound and herbicide” (SYNGENTA PARTICIPATIONS AG, priority 2013, dated 2017)
# Tests used:
# Type in all cases: in vivo
# oval-leafed pondweed [1] = assay: Test Example 2: weedkilling efficacy, growth period weed treatment in the submerged state; C: oval-leafed pondweed; settings: treatment dosage 1000 g/ha
# Method in brief: (§1)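 First, alluvial soil in pots is flooded to 4 cm and mixed seed is sown. Next, plants grow in a greenhouse at 25 to 30° C until the 1-2 leaf stage. Then diluted emulsion is applied onto the water surface at the given g/ha rate, and injury is assessed after 3 weeks.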
# soybean [2] = assay: Test Example 4: foliar treatment, effect on crop; d: soybean; settings: treatment dosage 1250 g/ha
# Method in brief: (§2)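 Seeds are spot-sown into sterilized diluvial soil and covered with about 1.5 cm of soil. After 14 days' greenhouse growth at 25 to 30° C, plants are sprayed on stems and leaves with diluted emulsion at the stated g/ha rate, then scored at 3 weeks.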
# fig-leafed goosefoot [3] = assay: Test Example 4: weedkilling efficacy by foliar treatment; M: fig-leafed goosefoot; settings: treatment dosage 1250 g/ha
# Method in brief: as §2
# corn [4] = assay: Test Example 4: foliar treatment, effect on crop; c: corn; settings: treatment dosage 1250 g/ha
# Method in brief: as §2
# directly sown rice [5] = assay: Test Example 4: foliar treatment, effect on crop; b: directly sown rice; settings: treatment dosage 1250 g/ha
# Method in brief: as §2
# beet [6] = assay: Test Example 3: soil treatment, effect on crop; f: beet; settings: treatment dosage 1250 g/ha
# Method in brief: (§3)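 Crop and weed responses were judged three weeks after a uniform surface spray of the water-diluted emulsion at the given g/ha rate. Seeds sat beneath about 1.5 cm of sterilized diluvial soil, and boxes stood in a greenhouse at 25 to 30° C.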
# green foxtail [7] = assay: Test Example 4: weedkilling efficacy by foliar treatment; E: green foxtail; settings: treatment dosage 1250 g/ha
# Method in brief: as §2
# transplanted rice = assay: Test Example 1: preemergent weed treatment in the submerged state, effect on crop; a: transplanted rice; settings: treatment dosage 1000 g/ha
# Method in brief: (§4)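 Emulsion diluted with water to the specified per-hectare dosage is applied onto flood water (4 cm) over alluvial soil on the sowing day, with barnyard grass, bulrush and pondweed seeded and rice (2.5-leaf) transplanted; plants grow at 25–30 °C and are rated at 3 weeks.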
# wheat [8] = assay: Test Example 4: foliar treatment, effect on crop; e: wheat; settings: treatment dosage 1250 g/ha
# Method in brief: as §2
# soybean [9] = assay: Test Example 3: soil treatment, effect on crop; d: soybean; settings: treatment dosage 1250 g/ha
# Method in brief: as §3
# corn [10] = assay: Test Example 3: soil treatment, effect on crop; c: corn; settings: treatment dosage 1250 g/ha
# Method in brief: as §3
# wild oat [11] = assay: Test Example 3: weedkilling efficacy through soil treatment; G: wild oat; settings: treatment dosage 1250 g/ha
# Method in brief: as §3
# beet [12] = assay: Test Example 4: foliar treatment, effect on crop; f: beet; settings: treatment dosage 1250 g/ha
# Method in brief: as §2
# bulrush [13] = assay: Test Example 1: weedkilling efficacy, preemergent weed treatment in the submerged state; B: bulrush; settings: treatment dosage 1000 g/ha
# Method in brief: as §4
# oval-leafed pondweed [14] = assay: Test Example 1: weedkilling efficacy, preemergent weed treatment in the submerged state; C: oval-leafed pondweed; settings: treatment dosage 1000 g/ha
# Method in brief: as §4
# wild oat [15] = assay: Test Example 4: weedkilling efficacy by foliar treatment; G: wild oat; settings: treatment dosage 1250 g/ha
# Method in brief: as §2
# Indian mallow [16] = assay: Test Example 4: weedkilling efficacy by foliar treatment; K: Indian mallow; settings: treatment dosage 1250 g/ha
# Method in brief: as §2
# bulrush [17] = assay: Test Example 2: weedkilling efficacy, growth period weed treatment in the submerged state; B: bulrush; settings: treatment dosage 1000 g/ha
# Method in brief: as §1
# chickweed [18] = assay: Test Example 4: weedkilling efficacy by foliar treatment; N: chickweed; settings: treatment dosage 1250 g/ha
# Method in brief: as §2
# fig-leafed goosefoot [19] = assay: Test Example 3: weedkilling efficacy through soil treatment; M: fig-leafed goosefoot; settings: treatment dosage 1250 g/ha
# Method in brief: as §3
# redroot pigweed [20] = assay: Test Example 3: weedkilling efficacy through soil treatment; L: redroot pigweed; settings: treatment dosage 1250 g/ha
# Method in brief: as §3
# green foxtail [21] = assay: Test Example 3: weedkilling efficacy through soil treatment; E: green foxtail; settings: treatment dosage 1250 g/ha
# Method in brief: as §3
# black-grass [22] = assay: Test Example 4: weedkilling efficacy by foliar treatment; H: black-grass; settings: treatment dosage 1250 g/ha
# Method in brief: as §2
# barnyard grass [23] = assay: Test Example 2: weedkilling efficacy, growth period weed treatment in the submerged state; A: barnyard grass; settings: treatment dosage 1000 g/ha
# Method in brief: as §1
# catchweed [24] = assay: Test Example 4: weedkilling efficacy by foliar treatment; O: catchweed; settings: treatment dosage 1250 g/ha
# Method in brief: as §2
# redroot pigweed [25] = assay: Test Example 4: weedkilling efficacy by foliar treatment; L: redroot pigweed; settings: treatment dosage 1250 g/ha
# Method in brief: as §2
# crabgrass [26] = assay: Test Example 3: weedkilling efficacy through soil treatment; D: crabgrass; settings: treatment dosage 1250 g/ha
# Method in brief: as §3
# black-grass [27] = assay: Test Example 3: weedkilling efficacy through soil treatment; H: black-grass; settings: treatment dosage 1250 g/ha
# Method in brief: as §3
# wheat [28] = assay: Test Example 3: soil treatment, effect on crop; e: wheat; settings: treatment dosage 1250 g/ha
# Method in brief: as §3
# catchweed [29] = assay: Test Example 3: weedkilling efficacy through soil treatment; O: catchweed; settings: treatment dosage 1250 g/ha
# Method in brief: as §3
# Italian ryegrass [30] = assay: Test Example 3: weedkilling efficacy through soil treatment; I: Italian ryegrass; settings: treatment dosage 1250 g/ha
# Method in brief: as §3
# Italian ryegrass [31] = assay: Test Example 4: weedkilling efficacy by foliar treatment; I: Italian ryegrass; settings: treatment dosage 1250 g/ha
# Method in brief: as §2
# crabgrass [32] = assay: Test Example 4: weedkilling efficacy by foliar treatment; D: crabgrass; settings: treatment dosage 1250 g/ha
# Method in brief: as §2
# birds-eye speedwell [33] = assay: Test Example 3: weedkilling efficacy through soil treatment; p: birds-eye speedwell; settings: treatment dosage 1250 g/ha
# Method in brief: as §3
# barnyard grass [34] = assay: Test Example 1: weedkilling efficacy, preemergent weed treatment in the submerged state; A: barnyard grass; settings: treatment dosage 1000 g/ha
# Method in brief: as §4
# directly sown rice [35] = assay: Test Example 3: soil treatment, effect on crop; b: directly sown rice; settings: treatment dosage 1250 g/ha
# Method in brief: as §3
# chickweed [36] = assay: Test Example 3: weedkilling efficacy through soil treatment; N: chickweed; settings: treatment dosage 1250 g/ha
# Method in brief: as §3
# Indian mallow [37] = assay: Test Example 3: weedkilling efficacy through soil treatment; K: Indian mallow; settings: treatment dosage 1250 g/ha
# Method in brief: as §3
# birds-eye speedwell [38] = assay: Test Example 4: weedkilling efficacy by foliar treatment; p: birds-eye speedwell; settings: treatment dosage 1250 g/ha
# Method in brief: as §2
smiles,measurement,setting,value
CC1=C(c2cccnc2Cl)C(=O)N(C(C)(C)C(=O)Nc2cccc(Cl)n2)CO1 [B-2-20],C (oval-leafed pondweed) weedkilling efficacy grade,oval-leafed pondweed [1],"3 (weed kill ratio 40% or more, less than 70%)"
same,d (soybean) effect on crop grade,soybean [2],"3 (weed kill ratio 40% or more, less than 70%)"
same,M (fig-leafed goosefoot) weedkilling efficacy grade,fig-leafed goosefoot [3],"3 (weed kill ratio 40% or more, less than 70%)"
same,c (corn) effect on crop grade,corn [4],"1 (weed kill ratio 5% or more, less than 20%)"
same,b (directly sown rice) effect on crop grade,directly sown rice [5],0 (weed kill ratio 5% or less (practically no effect))
same,f (beet) effect on crop grade,beet [6],"4 (weed kill ratio 70% or more, less than 90%)"
same,E (green foxtail) weedkilling efficacy grade,green foxtail [7],"5 (weed kill ratio 90% or more, (practically complete withering))"
same,a (transplanted rice) effect on crop grade,transplanted rice,0 (weed kill ratio 5% or less (practically no effect))
same,e (wheat) effect on crop grade,wheat [8],0 (weed kill ratio 5% or less (practically no effect))
same,d (soybean) effect on crop grade,soybean [9],0 (weed kill ratio 5% or less (practically no effect))
same,c (corn) effect on crop grade,corn [10],0 (weed kill ratio 5% or less (practically no effect))
same,G (wild oat) weedkilling efficacy grade,wild oat [11],0 (weed kill ratio 5% or less (practically no effect))
same,f (beet) effect on crop grade,beet [12],"4 (weed kill ratio 70% or more, less than 90%)"
same,B (bulrush) weedkilling efficacy grade,bulrush [13],"5 (weed kill ratio 90% or more, (practically complete withering))"
same,C (oval-leafed pondweed) weedkilling efficacy grade,oval-leafed pondweed [14],"4 (weed kill ratio 70% or more, less than 90%)"
same,G (wild oat) weedkilling efficacy grade,wild oat [15],0 (weed kill ratio 5% or less (practically no effect))
same,K (Indian mallow) weedkilling efficacy grade,Indian mallow [16],0 (weed kill ratio 5% or less (practically no effect))
same,B (bulrush) weedkilling efficacy grade,bulrush [17],"5 (weed kill ratio 90% or more, (practically complete withering))"
same,N (chickweed) weedkilling efficacy grade,chickweed [18],"2 (weed kill ratio 20% or more, less than 40%)"
same,M (fig-leafed goosefoot) weedkilling efficacy grade,fig-leafed goosefoot [19],"4 (weed kill ratio 70% or more, less than 90%)"
same,L (redroot pigweed) weedkilling efficacy grade,redroot pigweed [20],"4 (weed kill ratio 70% or more, less than 90%)"
same,E (green foxtail) weedkilling efficacy grade,green foxtail [21],"5 (weed kill ratio 90% or more, (practically complete withering))"
same,H (black-grass) weedkilling efficacy grade,black-grass [22],"4 (weed kill ratio 70% or more, less than 90%)"
same,A (barnyard grass) weedkilling efficacy grade,barnyard grass [23],"1 (weed kill ratio 5% or more, less than 20%)"
same,O (catchweed) weedkilling efficacy grade,catchweed [24],0 (weed kill ratio 5% or less (practically no effect))
same,L (redroot pigweed) weedkilling efficacy grade,redroot pigweed [25],"3 (weed kill ratio 40% or more, less than 70%)"
same,D (crabgrass) weedkilling efficacy grade,crabgrass [26],"3 (weed kill ratio 40% or more, less than 70%)"
same,H (black-grass) weedkilling efficacy grade,black-grass [27],"5 (weed kill ratio 90% or more, (practically complete withering))"
same,e (wheat) effect on crop grade,wheat [28],0 (weed kill ratio 5% or less (practically no effect))
same,O (catchweed) weedkilling efficacy grade,catchweed [29],0 (weed kill ratio 5% or less (practically no effect))
same,I (Italian ryegrass) weedkilling efficacy grade,Italian ryegrass [30],"5 (weed kill ratio 90% or more, (practically complete withering))"
same,I (Italian ryegrass) weedkilling efficacy grade,Italian ryegrass [31],"4 (weed kill ratio 70% or more, less than 90%)"
same,D (crabgrass) weedkilling efficacy grade,crabgrass [32],"5 (weed kill ratio 90% or more, (practically complete withering))"
same,P (birds-eye speedwell) weedkilling efficacy grade,birds-eye speedwell [33],"4 (weed kill ratio 70% or more, less than 90%)"
same,A (barnyard grass) weedkilling efficacy grade,barnyard grass [34],"5 (weed kill ratio 90% or more, (practically complete withering))"
same,b (directly sown rice) effect on crop grade,directly sown rice [35],"4 (weed kill ratio 70% or more, less than 90%)"
same,N (chickweed) weedkilling efficacy grade,chickweed [36],"3 (weed kill ratio 40% or more, less than 70%)"
same,K (Indian mallow) weedkilling efficacy grade,Indian mallow [37],"2 (weed kill ratio 20% or more, less than 40%)"
same,P (birds-eye speedwell) weedkilling efficacy grade,birds-eye speedwell [38],"4 (weed kill ratio 70% or more, less than 90%)"
